{"source": "the NIST ThermoML archive (doi:10.1021/acs.jced.9b00710)", "key": {"[1]": {"assay": "refractive index (Na D-line) (dimensionless)", "conditions": "293.15 K; 101.33 kPa; Liquid; Standard Abbe refractometry"}, "[2]": {"assay": "Molar enthalpy of transition or fusion", "conditions": "Crystal; DSC"}, "[3]": {"conditions": "Crystal; DSC"}}, "note": "Numbers after ± are expanded uncertainties."}
{"smiles": "CCCO", "note": "[propan-1-ol]", "values": [{"measurement": "refractive index", "setting": "[1]", "value": "1.3854 ± 0.002"}]}
{"smiles": "CCC(C)=O", "note": "[butanone]", "values": [{"measurement": "refractive index", "setting": "[1]", "value": "1.3787 ± 0.002"}]}
{"smiles": "C[S+](C)[O-]", "note": "[dimethyl sulfoxide]", "values": [{"measurement": "refractive index", "setting": "[1]", "value": "1.4789 ± 0.002"}]}
{"smiles": "CCCCO", "note": "[butan-1-ol]", "values": [{"measurement": "refractive index", "setting": "[1]", "value": "1.3989 ± 0.002"}]}
{"smiles": "CN(C)C=O", "note": "[dimethylformamide]", "values": [{"measurement": "refractive index", "setting": "[1]", "value": "1.4309 ± 0.002"}]}
{"smiles": "O=C(O)c1ccccc1", "note": "[benzoic acid]", "values": [{"measurement": "Molar enthalpy of transition or fusion", "setting": "[2]", "value": "4.25 ± 0.43", "unit": "kcal/mol"}, {"measurement": "Triple point temperature", "setting": "[3]", "value": "395.63 ± 1.2", "unit": "K"}]}
{"smiles": "O", "note": "[water]", "values": [{"measurement": "refractive index", "setting": "[1]", "value": "1.3334 ± 0.002"}]}
{"smiles": "C1CCCCC1", "note": "[cyclohexane]", "values": [{"measurement": "refractive index", "setting": "[1]", "value": "1.4235 ± 0.002"}]}
{"smiles": "Cc1nnc(C(C)C)n1[C@@H]1C[C@H]2CC[C@@H](C1)N2CC[C@H](NC(=O)C1CCC(F)(F)CC1)c1ccccc1", "note": "[maraviroc]", "values": [{"measurement": "Molar enthalpy of transition or fusion", "setting": "[2]", "value": "8.7 ± 0.884", "unit": "kcal/mol"}, {"measurement": "Triple point temperature", "setting": "[3]", "value": "468.1 ± 1.2", "unit": "K"}]}
{"smiles": "CCCC(C)=O", "note": "[pentan-2-one]", "values": [{"measurement": "refractive index", "setting": "[1]", "value": "1.3893 ± 0.002"}]}
{"smiles": "O=C(Nc1c(Cl)cncc1Cl)c1ccc(OC(F)F)c(OCC2CC2)c1", "note": "[roflumilast]", "values": [{"measurement": "Molar enthalpy of transition or fusion", "setting": "[2]", "value": "9.04 ± 0.932", "unit": "kcal/mol"}, {"measurement": "Triple point temperature", "setting": "[3]", "value": "432.4 ± 1.2", "unit": "K"}]}
{"smiles": "CCO", "note": "[ethanol]", "values": [{"measurement": "refractive index", "setting": "[1]", "value": "1.361 ± 0.002"}]}
